Data reported in patent publication US20150118311A1, “Highly Penetrative Nanocarriers for Treatment of CNS Disease” (priority 2012, published 2015).
Read-outs that look alike come from different tables or passages of the source.

Experiments:
GS5 cells = assay: GS5 cell proliferation/viability (MTT, AlamarBlue); type: cell-based, human
U87MG = assay: cells; settings: Homo sapiens, U-87 MG, read-out: IC50, growth of U87MG in vitro
U87MG-derived xenografts = assay: Survival of nude rats with intracranial U87MG xenografts after CED; type: in vivo; settings: U87MG xenograft
GS5-derived tumors = assay: Survival of nude rats with intracranial GS5 (BCSC) xenografts after CED; type: in vivo; settings: BCSC xenograft tumors in the rat, FIG. 1C
CD133+ cell population = assay: Flow cytometry of CD133+ cell population in BCSC culture; type: cell-based, human; settings: 100 nM drug, 3 days after plating, DI treated culture
BCSCs = type: cell-based, human
BCSC sphere formation = assay: BCSC sphere formation
BCSC line PS11 = assay: Flow cytometry of CD133+ population in PS11; settings: 1 μM
[1] = Homo sapiens, 72 h, GS5 cells, three days after treatment, read-out: IC50 of candidate drugs on GS5 cells
[2] = read-out: IC50 of candidate drugs on GS5 cells
[3] = Homo sapiens, 72 h, read-out: IC50 of candidate drugs on GS5 cells
[4] = GS5 cells, three days after treatment, read-out: IC50 of candidate drugs on GS5 cells

CCCCCCCCCCCCCCCCOP(=O)([O-])OCC[N+](C)(C)C [Miltefosine]
IC50 (GS5 cells; [1]): 27.8 µM

C[C@@H]1O[C@@H](O[C@@H]2C=C3CC[C@@H]4[C@H](CC[C@]5(C)[C@@H](c6ccc(=O)oc6)CC[C@]45O)[C@@]3(C)CC2)[C@H](O)[C@H](O)[C@H]1O [Proscillaridin A]
IC50 (GS5 cells; [2]): 0.1 µM

CC(=O)O[C@H]1C(=O)[C@@]2(C)[C@H]([C@H](OC(=O)c3ccccc3)[C@]3(O)C[C@H](OC(=O)[C@H](O)[C@@H](NC(=O)c4ccccc4)c4ccccc4)C(C)=C1C3(C)C)[C@]1(OC(C)=O)CO[C@@H]1C[C@@H]2O [paclitaxel]
IC50 (U87MG): 0.169 µM
survival benefit compared to no treatment (U87MG-derived xenografts; CED): failed to show a survival benefit
median survival (U87MG-derived xenografts; single CED infusion 7 days after inoculation): 30 days

CCN1/C(=C/C=C/C=C/c2sc3ccccc3[n+]2CC)Sc2ccccc21 [Dithiazanine iodide]
median survival (GS5-derived tumors): 177 days
IC50 (GS5 cells; [1]): 0.3 µM
IC50 (GS5 cells; Homo sapiens, GS5, running text, read-out: IC50, inhibition of GS5 proliferation): 0.079 µM
decrease of CD133+ cell population (CD133+ cell population): 57%

CC1=C(C(=O)O)N2C(=O)[C@@H](NC(=O)[C@H](N)C3=CCC=CC3)[C@H]2SC1 [Cephradine]
IC50 (GS5 cells; [1]): 38.5 µM

CC[C@H]1CN2CCc3cc(OC)c(OC)cc3[C@@H]2C[C@@H]1C[C@H]1NCCc2cc(OC)c(OC)cc21 [Emetine]
IC50 (GS5 cells; [1]): 0.3 µM

CCN(CC)CCCC(C)Nc1c2ccc(Cl)cc2nc2ccc(OC)cc12 (stereo not shown) [Quinacrine]
IC50 (GS5 cells; [1]): 2.7 µM

N=C(N)NCC(=O)O [Glycocyamine]
IC50 (GS5 cells; [1]): 33.9 µM

C[C@H]1O[C@@H](O[C@H]2[C@@H](O)C[C@H](O[C@H]3[C@@H](O)C[C@H](O[C@H]4CC[C@@]5(C)[C@H](CC[C@@H]6[C@@H]5C[C@@H](O)[C@]5(C)[C@@H](C7=CC(=O)OC7)CC[C@]65O)C4)O[C@@H]3C)O[C@@H]2C)C[C@H](O)[C@@H]1O [Digoxin]
effect on BCSC proliferation (BCSCs): inhibited BCSC proliferation
performance on in vitro assays against BCSCs (BCSCs): performed well
effect on BCSC sphere formation (BCSC sphere formation; 1 μM): inhibited BCSC sphere formation
effect on BCSC sphere formation (BCSC sphere formation; 5 μM): inhibited BCSC sphere formation
IC50 (GS5 cells; [3]): 0.3 µM
effect on CD133+ population (BCSC line PS11): decreased the CD133+ population

CN(C)CCC(c1ccc(Cl)cc1)c1ccccn1 (stereo not shown) [Chlorpheniramine]
IC50 (GS5 cells; [1]): 40.4 µM

CC(C)C[C@H]1C(=O)N2CCC[C@H]2[C@]2(O)O[C@](NC(=O)[C@@H]3C=C4c5cccc6[nH]c(Br)c(c56)C[C@H]4N(C)C3)(C(C)C)C(=O)N12 [Bromocriptine]
IC50 (GS5 cells; [3]): 9.1 µM

Nc1nc(Cl)nc2c1ncn2[C@H]1C[C@H](O)[C@@H](CO)O1 [Cladribine]
IC50 (GS5 cells; [1]): 3.4 µM

O=S(=O)([O-])[O-].[Fe+2] [Iron(II) sulfate heptahydrate]
IC50 (GS5 cells; [2]): 32.1 µM

Sc1ncnc2nc[nH]c12 [6-Mercaptopurine monohydrate]
IC50 (GS5 cells; [3]): 7.8 µM

CC1=C2N=C(C=C3N=C(C(C)=C4[N-]C(C(CC(N)=O)C4(C)CCC(=O)NCC(C)OP(=O)([O-])OC4C(CO)OC(n5cnc6cc(C)c(C)cc65)C4O)C4(C)N=C1C(CCC(N)=O)C4(C)CC(N)=O)C(CCC(N)=O)C3(C)C)C(CCC(N)=O)C2(C)CC(N)=O.Cl.[Co+3].[OH-] (stereo not shown) [Hydroxocobalamin hydrochloride]
IC50 (GS5 cells; [2]): 32.1 µM

S=C(S)N1CCCC1 [Ammonium pyrrolidinedithiocarbamate]
IC50 (GS5 cells; [4]): 3.3 µM

Nc1ccn([C@@H]2O[C@H](CO)[C@@H](O)[C@@H]2O)c(=O)n1 [Cytarabine]
IC50 (GS5 cells; [1]): 0.8 µM

COc1ccc(C[C@H]2NC[C@H](O)[C@H]2OC(C)=O)cc1 [Anisomycin]
performance on in vitro assays against BCSCs (BCSCs): performed well
IC50 (GS5 cells; [2]): 0.3 µM

C[C@H]1C[C@H]2[C@@H]3CCC4=CC(=O)C=C[C@]4(C)[C@@]3(F)[C@@H](O)C[C@]2(C)[C@@]1(O)C(=O)CO [Betamethasone]
IC50 (GS5 cells; [1]): 25.9 µM

Acriflavine hydrochloride
IC50 (GS5 cells; [4]): 3 µM

CN1CCC(Nc2ncc3ncnc(Nc4ccc(F)c(Cl)c4)c3n2)CC1 [Falnidamol]
IC50 (GS5 cells; [3]): 22 µM

Nc1nc2nc[nH]c2c(=S)[nH]1 [Thioguanine]
IC50 (GS5 cells; [1]): 4.6 µM

CCN(CC)CCNc1ccc(CO)c2sc3ccccc3c(=O)c12 [Hycanthone]
IC50 (GS5 cells; [1]): 5.6 µM

CCC(=O)[O-].CCC(=O)[O-].[Ca+2] [Calcium propionate]
IC50 (GS5 cells; [2]): 29.5 µM

COc1ccc2c(c1)[nH]c1c(C)nccc12 [Harmine]
IC50 (GS5 cells; [3]): 19.3 µM

Cc1ccc2ccc3ccc(C)nc3c2n1 [Neocuproine]
IC50 (GS5 cells; [1]): 0.2 µM
